Patent US4921866A, “1,3-dioxanes” (Imperial Chemical Industries plc, priority 1987, dated 1990)
Entries after “also recorded” stand apart in the source; their conditions may differ.

Assays:
[1] = TXA2 antagonist and/or TXA2 synthase inhibitory properties (general statement, standard tests); conditions: qualitative statement
Description: (§1) The samples treated with anti-coagulant are first incubated at 37° C. with collegen (at about 100 micro M), then mixed with the cyclooxygenase inhibitor indomethancin (at about […]), centrifuged and the level of the TXA2 metabolite TXB2 determined by a standard radioimmunoassay technique. By comparison of the amount of TXB2 present in the plasma from animals dosed with test compound with that in the plasma of a control group dosed with placebo, the TXA2 synthase inhibitory properties may be assessed.

TXA2 receptor [2] = biological target: T1, TXA2 receptor (Rattus norvegicus, UniProt P34978); assay: test (a): rat aortic strip model, U46619 as agonist; type: cell-based; conditions: read-out: pA2 (converted)
T1 construct: The rat aortic strip model; from tissue; host or cells: rat aortic strip
T1 sequence (P34978 1-341): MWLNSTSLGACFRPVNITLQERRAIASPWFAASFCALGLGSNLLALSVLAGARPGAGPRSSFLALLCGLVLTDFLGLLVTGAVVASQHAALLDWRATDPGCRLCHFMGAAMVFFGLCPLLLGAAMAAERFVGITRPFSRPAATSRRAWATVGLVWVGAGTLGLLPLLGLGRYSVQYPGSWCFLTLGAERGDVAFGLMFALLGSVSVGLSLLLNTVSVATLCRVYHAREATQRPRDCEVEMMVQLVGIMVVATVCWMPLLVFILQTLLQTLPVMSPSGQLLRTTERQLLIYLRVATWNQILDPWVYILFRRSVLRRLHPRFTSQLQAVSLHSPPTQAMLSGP
Excerpt: (a) The rat aortic strip model (based on that devised by Piper and Vane (Nature, 1969, 223, 29-35) in the rabbit) using as agonist the TXA2 mimetic agent known as U46619 (described by R. L. Jones et alia in "Chemistry, Biochemistry and Pharmacological Activity of Prostanoids" edited by S. M. Roberts and F. Scheinmann, at page 211; Pergamon Press, 1979);

TXA2 receptor [3] = biological target: T2, TXA2 receptor (Homo sapiens, UniProt P21731); assay: test (b): blood platelet aggregation test, U46619 stimulated, human platelet-rich plasma; type: cell-based
T2 construct: aggregating human, citrated, platelet-rich plasma; endogenous in cells; host or cells: human platelets in citrated platelet-rich plasma
T2 sequence (P21731 1-343): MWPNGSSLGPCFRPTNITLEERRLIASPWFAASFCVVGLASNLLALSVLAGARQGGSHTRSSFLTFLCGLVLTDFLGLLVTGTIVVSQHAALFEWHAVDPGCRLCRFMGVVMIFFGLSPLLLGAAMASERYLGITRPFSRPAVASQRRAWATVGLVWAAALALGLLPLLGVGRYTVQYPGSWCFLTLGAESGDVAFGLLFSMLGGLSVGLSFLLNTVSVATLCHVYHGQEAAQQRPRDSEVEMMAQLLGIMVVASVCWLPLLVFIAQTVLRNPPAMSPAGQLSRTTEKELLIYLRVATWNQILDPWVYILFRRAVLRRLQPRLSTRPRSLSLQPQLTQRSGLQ
Excerpt: (b) a blood platelet aggregation test based on that described by Born (Nature, 1962, 194, 927-929) and involving:
(i) aggregating human, citrated, platelet-rich plasma by addition of the TXA2 mimetic agent U46619 so that a dose-response curve is generated;
(ii) generating a dose-response curve for U46619 stimulated platelet aggregation in the presence of increasing amounts of test compound (generally in the range 10^-5 M to 10^-10 M); and
(iii) calculating a KB value indicating potency of TXA2 antagonism for the test compound, average over several concentrations, from the calculated 50% response value for U46619 aggregation in the presence and absence of test compound; or […]

TXA2 synthase [4] = biological target: T3, TXA2 synthase (Homo sapiens, UniProt P24557); assay: test (e): in vitro TXA2 synthase inhibition, human platelet microsomal TXA2 synthase preparation; type: biochemical
T3 construct: using a human platelet microsomal TXA2 synthase preparation; from tissue; host or cells: human platelet microsomes
T3 sequence (P24557 1-533): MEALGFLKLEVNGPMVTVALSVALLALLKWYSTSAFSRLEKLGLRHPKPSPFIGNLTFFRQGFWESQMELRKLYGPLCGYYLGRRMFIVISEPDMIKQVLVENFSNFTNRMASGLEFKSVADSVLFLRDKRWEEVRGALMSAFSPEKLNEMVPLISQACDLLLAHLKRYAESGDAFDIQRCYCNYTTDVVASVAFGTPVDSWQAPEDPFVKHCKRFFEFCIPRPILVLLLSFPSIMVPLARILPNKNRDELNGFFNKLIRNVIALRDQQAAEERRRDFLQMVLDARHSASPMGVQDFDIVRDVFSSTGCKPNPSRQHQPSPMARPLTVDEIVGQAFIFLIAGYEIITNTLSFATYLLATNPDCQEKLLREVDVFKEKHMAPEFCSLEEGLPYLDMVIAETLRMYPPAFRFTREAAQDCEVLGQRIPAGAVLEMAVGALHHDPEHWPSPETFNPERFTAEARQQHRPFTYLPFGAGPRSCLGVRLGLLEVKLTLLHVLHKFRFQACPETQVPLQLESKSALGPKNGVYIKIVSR

TXA2 synthase [5] = assay: test (f): TXB2 production in blood samples from dosed laboratory animals; type: in vivo, rat; conditions: 3 hours following an oral dose of 100 mg/kg to rats
Description: as §1

[6] = observation of signs of toxicity in rats in test (f); type: in vivo, rat; conditions: oral dose of 100 mg/kg to rats

## O=C(O)CCCC/C=C\C[C@@H]1CO[C@H](c2ccncc2)O[C@@H]1c1ccccc1O (relative stereo) [Example 9, 6(Z)-8-([2,4,5-cis]-4-o-hydroxyphenyl-2-[4-pyridyl]-1,3-dioxan-5-yl)octenoic acid]
[1]
  TXA2 antagonist and/or TXA2 synthase inhibitory properties: predominantly TXA2 synthase inhibitory properties

## O=C(O)CC/C=C\C[C@@H]1CO[C@H](Cc2cccnc2)O[C@@H]1c1ccccc1O (relative stereo) [Example 12, 4(Z)-6-([2,4,5-cis]-4-o-hydroxyphenyl-2-[3-pyridylmethyl]-1,3-dioxan-5-yl)hexenoic acid]
[1]
  TXA2 antagonist and/or TXA2 synthase inhibitory properties: combined antagonist and TXA2 synthase inhibitory properties

## CC(C)(Cc1cccnc1)[C@H]1OC[C@@H](C/C=C\CCC(=O)O)[C@@H](c2ccccc2O)O1 (relative stereo) [Example 18, 4(Z)-6-([2,4,5-cis]-4-o-hydroxyphenyl-2-[2-(3-pyridyl)-1,1-dimethylethyl]-1,3-dioxan-5-yl)hexenoic acid]
[1]
  TXA2 antagonist and/or TXA2 synthase inhibitory properties: combined antagonist and TXA2 synthase inhibitory properties

## O=C(O)CC/C=C\C[C@@H]1CO[C@H](c2ccccn2)O[C@@H]1c1ccccc1O (relative stereo) [Example 4, 4(Z)-6-([2,4,5-cis]-4-o-hydroxyphenyl-2-[2-pyridyl]-1,3-dioxan-5-yl)hexenoic acid]
[1]
  TXA2 antagonist and/or TXA2 synthase inhibitory properties: TXA2 antagonist properties

## O=C(O)CC/C=C\C[C@@H]1CO[C@H](Cc2ccccn2)O[C@@H]1c1ccccc1O (relative stereo) [Example 11, 4(Z)-6-([2,4,5-cis]-4-o-hydroxyphenyl-2-[2-pyridylmethyl]-1,3-dioxan-5-yl)hexenoic acid]
[1]
  TXA2 antagonist and/or TXA2 synthase inhibitory properties: TXA2 antagonist properties

## CC(C)(c1cccnc1)[C@H]1OC[C@@H](C/C=C\CCCC(=O)O)[C@@H](c2ccccc2O)O1 (relative stereo) [Example 19, 5(Z)-7-([2,4,5-cis]-4-o-hydroxyphenyl-2[1-(3-pyridyl)-1-methylethyl]-1,3-dioxan-5-yl)heptenoic acid]
[1]
  TXA2 antagonist and/or TXA2 synthase inhibitory properties: combined antagonist and TXA2 synthase inhibitory properties

## CC(C)(c1cccnc1)[C@H]1OC[C@@H](C/C=C\CCC(=O)O)[C@@H](c2ccccc2O)O1 (relative stereo) [Example 17, 4(Z)-6-([2,4,5-cis]-4-o-hydroxyphenyl-2-[1-(3-pyridyl)-1-methylethyl]-1,3-dioxan-5-yl)hexenoic acid]
[1]
  TXA2 antagonist and/or TXA2 synthase inhibitory properties: combined antagonist and TXA2 synthase inhibitory properties

## O=C(O)CCC/C=C\C[C@@H]1CO[C@H](Cc2cccnc2)O[C@@H]1c1ccccc1O (relative stereo) [Example 2, 5(Z)-7-([2,4,5-cis]-4-o-hydroxyphenyl-2-[3-pyridylmethyl]-1,3-dioxan-5-yl)heptenoic acid]
[1]
  TXA2 antagonist and/or TXA2 synthase inhibitory properties: combined antagonist and TXA2 synthase inhibitory properties

## CC(C)(Oc1cccnc1)[C@H]1OC[C@@H](C/C=C\CCC(=O)O)[C@@H](c2ccccc2O)O1 (relative stereo) [Example 23, 4(Z)-6-([2,4,5-cis]-4-o-hydroxyphenyl-2-[1-(3-pyridyloxy)-1-methylethyl]-1,3-dioxan-5-yl)hexenoic acid]
[1]
  TXA2 antagonist and/or TXA2 synthase inhibitory properties: combined antagonist and TXA2 synthase inhibitory properties

## O=C(O)CC/C=C\C[C@@H]1CO[C@H](c2cccnc2)O[C@@H]1c1ccccc1O (relative stereo) [Example 1, 4(Z)-6-([2,4,5-cis]-4-o-hydroxyphenyl-2-[3-pyridyl]-1,3-dioxan-5-yl)hexenoic acid]
TXA2 receptor [2]
  Kb: 0.0794 µM
TXA2 receptor [3]
  Kb: 0.017 µM
TXA2 synthase [4]
  IC50: 3.14 µM
TXA2 synthase [5]
  inhibition of TXB2 production: essentially complete inhibition of TXB2 production
[6]
  observable signs of toxicity to the test animals: without any observable signs of toxicity
[1]
  TXA2 antagonist and/or TXA2 synthase inhibitory properties: combined antagonist and TXA2 synthase inhibitory properties; also recorded: both TXA2 antagonist and TXA2 synthase inhibitory properties

## O=C(O)CCC/C=C\C[C@@H]1CO[C@H](Cc2cccnc2)O[C@@H]1c1ccccc1 (relative stereo) [Example 16, 5(Z)-7-(4-phenyl-2-[3-pyridylmethyl]-1,3-dioxan-5-yl)heptenoic acid]
[1]
  TXA2 antagonist and/or TXA2 synthase inhibitory properties: predominantly TXA2 synthase inhibitory properties
